Experimental data taken from patent US7235379B2, “Method and medium for the detection/identification of microorgranisms with esterase activity” (Bio Merieux, priority 2000, dated 2007).
Counter-ions that a name gives are not always drawn. Like-named read-outs stand apart in the source and are kept apart here.

Legend:
[1] = tested on: Salmonella enteritidis 002; test: Ex.1 colony coloration, 5-bromo-3-indolyl nonanoate, DMSO/Tween 20, MacConkey; assay type: cell-based
Method: (§4) The esterase substrate tested is 5-bromo-3-indolyl nonanoate. A 40 g/l stock solution of substrate is prepared in a mixture of 40% dimethyl sulfoxide and 60% Tween 20. A sufficient volume is added to a supercooled MacConkey medium (without neutral red) to give a substrate concentration of 500 mg/l.

Salmonella arizonae 018 [2] = test: as above; assay type: cell-based
Method: as §4

[3] = tested on: Salmonella enteritidis 002; test: Ex.2 colony coloration, 5-bromo-3-indolyl nonanoate, methanol/bile salts, MacConkey; assay type: cell-based; on intensity of coloration: key: 0: no activity; 0.1: trace of coloration; 0.5: very pale coloration; 1: distinct coloration of low intensity; 2: clear coloration of medium intensity; 3: intense coloration; 4: very intense coloration
[4] = tested on: Salmonella paratyphi A 006
Method: (§1) The esterase substrate tested is 5-bromo-3-indolyl nonanoate. A 25 g/l stock solution of substrate is prepared in methanol to which 5 g/l of bile salts have been added. A sufficient volume is added to a supercooled MacConkey medium (without neutral red) to give a substrate concentration of 500 mg/l.
(§2) Microorganisms originating from the Applicant's collection were inoculated onto this medium from a 0.5 McFarland suspension by isolation in three quadrants. The dishes were incubated at 37° C. for 48 hours. The colonies formed were examined visually after 24 and 48 hours of incubation. The coloration of these colonies and the intensity of this coloration were noted.
(§3) Note: In the above Examples, the numbers following the strains correspond to the number of each strain referenced in the Applicant's collection. The intensity of coloration corresponds to an arbitrary scale defined as follows: […]

Salmonella spp. 017 = tested on: Salmonella spp. 017
Method: as §1, §2, §3

Enterobacter cloacae 086 = test: Ex.2 colony coloration, 5-bromo-3-indolyl nonanoate, methanol/bile salts, MacConkey; assay type: cell-based; on intensity of coloration: key: 0: no activity; 0.1: trace of coloration; 0.5: very pale coloration; 1: distinct coloration of low intensity; 2: clear coloration of medium intensity; 3: intense coloration; 4: very intense coloration
[5] = tested on: Pseudomonas aeruginosa 165; test: as above; assay type: cell-based
[6] = tested on: Listeria monocytogenes 079; test: Ex.3 colony coloration, 5-bromo-4-chloro-3-indolyl nonanoate 250 mg/l, DMSO/Tween 20; assay type: cell-based; further: key: 0: no activity; 0.1: trace of coloration; 0.5: very pale coloration; 1: distinct coloration of low intensity; 2: clear coloration of medium intensity; 3: intense coloration; 4: very intense coloration
Method: (§5) The esterase substrate tested is 5-bromo-4-chloro-3-indolyl nonanoate. A 40 g/l stock solution of substrate is prepared in a mixture of 40% dimethyl sulfoxide and 60% Tween 20. A sufficient volume is added to a supercooled MacConkey medium (without neutral red) to give a substrate concentration of 250 mg/l.

Listeria innocua 029 = test: as above; assay type: cell-based; further: key: 0: no activity; 0.1: trace of coloration; 0.5: very pale coloration; 1: distinct coloration of low intensity; 2: clear coloration of medium intensity; 3: intense coloration; 4: very intense coloration
Method: as §5

[7] = tested on: Salmonella enteritidis 006; test: Ex.4 colony coloration, 5-bromo-3-indolyl nonanoate, DMSO/Tween 20, MacConkey; assay type: cell-based; settings: 8 ml/l Tergitol 4
Salmonella arizonae 018 [8] = test: as above; assay type: cell-based; settings: 8 ml/l Tergitol 4

CCCCC(CC)CCC(CC(C)C)OS(=O)(=O)O (stereo not drawn) [Tergitol 4, 7-ethyl-2-methyl-4-undecanoate hydrogensulfate or its sodium salt]
4: intensity of coloration (Salmonella arizonae 018 [2]; 16 ml/l, 48 h) | intensity of coloration ([5]; 4 ml/l, 24 h) | intensity of coloration ([5]; 4 ml/l, 48 h) | intensity of coloration ([5]; 8 ml/l, 24 h) | intensity of coloration ([5]; 8 ml/l, 48 h) | intensity of coloration ([5]; 16 ml/l, 24 h) | intensity of coloration ([5]; 16 ml/l, 48 h)
2.5: intensity of coloration (Salmonella arizonae 018 [2]; 2 ml/l, 48 h)
gray: color ([1]; 2 ml/l, 24 h) | color ([1]; 2 ml/l, 48 h) | color ([1]; 4 ml/l, 24 h) | color ([1]; 4 ml/l, 48 h) | color ([1]; 8 ml/l, 24 h) | color ([1]; 8 ml/l, 48 h) | color ([1]; 16 ml/l, 24 h) | color ([1]; 16 ml/l, 48 h) | color (Salmonella arizonae 018 [2]; 2 ml/l, 24 h) | color (Salmonella arizonae 018 [2]; 2 ml/l, 48 h) | color (Salmonella arizonae 018 [2]; 4 ml/l, 24 h) | color (Salmonella arizonae 018 [2]; 4 ml/l, 48 h) | color (Salmonella arizonae 018 [2]; 8 ml/l, 24 h) | color (Salmonella arizonae 018 [2]; 8 ml/l, 48 h) | color (Salmonella arizonae 018 [2]; 16 ml/l, 24 h) | color (Salmonella arizonae 018 [2]; 16 ml/l, 48 h) | color ([3]; 2 ml/l, 24 h) | color ([3]; 2 ml/l, 48 h) | color ([3]; 4 ml/l, 24 h) | color ([3]; 4 ml/l, 48 h) | color ([3]; 8 ml/l, 24 h) | color ([3]; 8 ml/l, 48 h) | color ([3]; 16 ml/l, 24 h) | color ([3]; 16 ml/l, 48 h) | color ([4]; 2 ml/l, 24 h) | color ([4]; 2 ml/l, 48 h) | color ([4]; 4 ml/l, 24 h) | color ([4]; 4 ml/l, 48 h) | color (Salmonella spp. 017; 2 ml/l, 24 h) | color (Salmonella spp. 017; 2 ml/l, 48 h) | color (Salmonella spp. 017; 4 ml/l, 24 h) | color (Salmonella spp. 017; 4 ml/l, 48 h) | color (Salmonella spp. 017; 8 ml/l, 24 h) | color (Salmonella spp. 017; 8 ml/l, 48 h) | color (Salmonella spp. 017; 16 ml/l, 24 h) | color (Salmonella spp. 017; 16 ml/l, 48 h) | color (Enterobacter cloacae 086; 2 ml/l, 24 h) | color (Enterobacter cloacae 086; 2 ml/l, 48 h) | color (Enterobacter cloacae 086; 4 ml/l, 24 h) | color (Enterobacter cloacae 086; 4 ml/l, 48 h) | color (Enterobacter cloacae 086; 8 ml/l, 24 h) | color (Enterobacter cloacae 086; 8 ml/l, 48 h) | color (Enterobacter cloacae 086; 16 ml/l, 24 h) | color (Enterobacter cloacae 086; 16 ml/l, 48 h) | color ([5]; 2 ml/l, 24 h) | color ([5]; 2 ml/l, 48 h) | color ([5]; 4 ml/l, 24 h) | color ([5]; 4 ml/l, 48 h) | color ([5]; 8 ml/l, 24 h) | color ([5]; 8 ml/l, 48 h) | color ([5]; 16 ml/l, 24 h) | color ([5]; 16 ml/l, 48 h) | color ([7]; 24 h) | color ([7]; 48 h) | color (Salmonella arizonae 018 [8]; 24 h) | color (Salmonella arizonae 018 [8]; 48 h)
1.5: intensity of coloration (Salmonella spp. 017; 2 ml/l, 48 h) | intensity of coloration (Salmonella spp. 017; 4 ml/l, 48 h) | intensity of coloration (Salmonella spp. 017; 8 ml/l, 48 h) | intensity of coloration (Salmonella spp. 017; 16 ml/l, 48 h)
1: intensity of coloration ([3]; 16 ml/l, 48 h) | intensity of coloration ([4]; 4 ml/l, 48 h) | intensity of coloration (Salmonella spp. 017; 2 ml/l, 24 h) | intensity of coloration (Salmonella spp. 017; 4 ml/l, 24 h) | intensity of coloration (Salmonella spp. 017; 8 ml/l, 24 h) | intensity of coloration (Salmonella spp. 017; 16 ml/l, 24 h) | intensity of coloration (Enterobacter cloacae 086; 4 ml/l, 24 h) | intensity of coloration (Enterobacter cloacae 086; 8 ml/l, 48 h) | intensity of coloration (Enterobacter cloacae 086; 16 ml/l, 48 h)
2: intensity of coloration ([1]; 2 ml/l, 24 h) | intensity of coloration ([1]; 2 ml/l, 48 h) | intensity of coloration (Salmonella arizonae 018 [2]; 2 ml/l, 24 h) | intensity of coloration ([3]; 2 ml/l, 24 h) | intensity of coloration ([3]; 8 ml/l, 48 h) | intensity of coloration (Enterobacter cloacae 086; 2 ml/l, 48 h) | intensity of coloration ([6]; 0.001 ml/l, 24 h) | intensity of coloration ([6]; 0.1 ml/l, 24 h) | intensity of coloration ([6]; 1 ml/l (1st col), 24 h) | intensity of coloration ([6]; 1 ml/l (2nd col), 24 h) | intensity of coloration (Listeria innocua 029; 0.001 ml/l, 48 h) | intensity of coloration (Listeria innocua 029; 0.01 ml/l, 48 h) | intensity of coloration (Listeria innocua 029; 0.1 ml/l, 48 h) | intensity of coloration (Listeria innocua 029; 1 ml/l (1st col), 48 h) | intensity of coloration (Listeria innocua 029; 1 ml/l (2nd col), 48 h)
3: intensity of coloration ([1]; 4 ml/l, 24 h) | intensity of coloration ([1]; 4 ml/l, 48 h) | intensity of coloration ([3]; 2 ml/l, 48 h) | intensity of coloration ([3]; 4 ml/l, 24 h) | intensity of coloration ([3]; 4 ml/l, 48 h) | intensity of coloration (Enterobacter cloacae 086; 4 ml/l, 48 h) | intensity of coloration ([6]; 0.001 ml/l, 48 h) | intensity of coloration ([6]; 0.01 ml/l, 24 h) | intensity of coloration ([6]; 0.01 ml/l, 48 h) | intensity of coloration ([6]; 0.1 ml/l, 48 h) | intensity of coloration ([6]; 1 ml/l (1st col), 48 h) | intensity of coloration ([6]; 1 ml/l (2nd col), 48 h) | intensity of coloration ([7]; 24 h) | intensity of coloration ([7]; 48 h)
3.5: intensity of coloration ([1]; 8 ml/l, 24 h) | intensity of coloration ([1]; 8 ml/l, 48 h) | intensity of coloration ([1]; 16 ml/l, 24 h) | intensity of coloration ([1]; 16 ml/l, 48 h) | intensity of coloration (Salmonella arizonae 018 [2]; 4 ml/l, 24 h) | intensity of coloration (Salmonella arizonae 018 [2]; 4 ml/l, 48 h) | intensity of coloration (Salmonella arizonae 018 [2]; 8 ml/l, 24 h) | intensity of coloration (Salmonella arizonae 018 [2]; 8 ml/l, 48 h) | intensity of coloration (Salmonella arizonae 018 [2]; 16 ml/l, 24 h) | intensity of coloration ([5]; 2 ml/l, 24 h) | intensity of coloration ([5]; 2 ml/l, 48 h) | intensity of coloration (Salmonella arizonae 018 [8]; 24 h) | intensity of coloration (Salmonella arizonae 018 [8]; 48 h)
0.5: intensity of coloration ([3]; 8 ml/l, 24 h) | intensity of coloration ([4]; 2 ml/l, 48 h) | intensity of coloration (Enterobacter cloacae 086; 2 ml/l, 24 h) | intensity of coloration (Enterobacter cloacae 086; 8 ml/l, 24 h) | intensity of coloration (Enterobacter cloacae 086; 16 ml/l, 24 h)
0.1: intensity of coloration ([3]; 16 ml/l, 24 h) | intensity of coloration ([4]; 2 ml/l, 24 h) | intensity of coloration ([4]; 4 ml/l, 24 h) | intensity of coloration (Listeria innocua 029; 0.001 ml/l, 24 h) | intensity of coloration (Listeria innocua 029; 0.01 ml/l, 24 h) | intensity of coloration (Listeria innocua 029; 0.1 ml/l, 24 h) | intensity of coloration (Listeria innocua 029; 1 ml/l (1st col), 24 h) | intensity of coloration (Listeria innocua 029; 1 ml/l (2nd col), 24 h)
